Test results as given in patent publication US12599590B2 (TriviumVet DAC, priority 2019, dated 2026).

Assays:
[1] = Canine pharmacokinetics of enteric coated formulations at 0.15 mg/kg (T1) and 0.75 mg/kg (T5); assay type: in vivo; conditions: dogs, oral enteric coated formulation; for AUC(0-inf) / AUC(0-t) / Cmax / Tmax / half-life: dog, blood, po
[2] = tested on: healthy dogs; conditions: 0.05 or 0.1 mg/kg orally three times per week, 10 weeks; cited from earlier work
[3] = cited from earlier work
[4] = typical gastric pH range; cited from earlier work
[5] = Feline repeat dose toxicokinetic study of oral enteric-coated formulations; assay type: in vivo; conditions: whole blood, cats, oral enteric-coated formulation, Mean; for AUC(0-t): read-out: AUC0-72
Experimental: This represents a first-in-species repeat dose test toxicokinetic study in cats. Pharmacokinetic sampling was performed after the first and last doses.

[6] = 0.15 mg/kg, T1 0.15 mg/kg, Arith. Mean
[7] = 0.15 mg/kg, T1 0.15 mg/kg, Median
[8] = 0.75 mg/kg, T5 0.75 mg/kg, Arith. Mean
[9] = 0.75 mg/kg, T5 0.75 mg/kg, Median
[10] = 0.15 mg/kg, 0.15 mg/kg three times a week, Day 26, whole blood
[11] = 0.15 mg/kg, 0.15 mg/kg, Day 0, whole blood
[12] = 0.45 mg/kg, 0.45 mg/kg three times a week, Day 26, whole blood
[13] = 0.45 mg/kg, 0.45 mg/kg, Day 0, whole blood
[14] = 0.75 mg/kg, 0.75 mg/kg three times a week, Day 26, whole blood
[15] = 0.75 mg/kg, 0.75 mg/kg, Day 0, whole blood

AUC(0-inf) [1, 6]: 42.7 ng·h/mL
AUC(0-t) [1, 6]: 40.8 ng·h/mL
Cmax [1, 6]: 2.23 ng/mL
Tmax [1, 6]: 1.83 h
half-life [1, 6]: 16.4 h
AUC(0-inf) [1, 7]: 38.5 ng·h/mL
AUC(0-t) [1, 7]: 45.2 ng·h/mL
Cmax [1, 7]: 2.17 ng/mL
Tmax [1, 7]: 2 h
half-life [1, 7]: 13.6 h
AUC(0-inf) [1, 8]: 102 ng·h/mL
AUC(0-t) [1, 8]: 111 ng·h/mL
Cmax [1, 8]: 4.41 ng/mL
Tmax [1, 8]: 2.17 h
half-life [1, 8]: 20.2 h
AUC(0-inf) [1, 9]: 98.4 ng·h/mL
AUC(0-t) [1, 9]: 96.9 ng·h/mL
Cmax [1, 9]: 3.14 ng/mL
Tmax [1, 9]: 2 h
half-life [1, 9]: 20.5 h
kelim ([1]; T1 0.15 mg/kg, Arith. Mean): 0.0596 h⁻¹
kelim ([1]; T1 0.15 mg/kg, Median): 0.0627 h⁻¹
kelim ([1]; T5 0.75 mg/kg, Arith. Mean): 0.0357 h⁻¹
kelim ([1]; T5 0.75 mg/kg, Median): 0.0338 h⁻¹
SMILES: CO[C@H]1C[C@@H]2CC[C@@H](C)[C@@](O)(O2)C(=O)C(=O)N2CCCC[C@H]2C(=O)O[C@H]([C@H](C)C[C@@H]2CC[C@@H](O)[C@H](OC)C2)CC(=O)[C@H](C)/C=C(\C)[C@@H](O)[C@@H](OC)C(=O)[C@H](C)C[C@H](C)/C=C/C=C/C=C/1C [rapamycin]
clinical side effects and hematological changes [2]: did not cause significant clinical side effects or abnormal hematological changes
solubility in water [3]: poorly soluble in water
acid stability [4]: rapidly degrades within the typical gastric pH range
Cmax [5, 10]: 2.26 ng/mL
AUC(0-t) [5, 10]: 54 ng·h/mL
Cmax [5, 11]: 2.85 ng/mL
Tmax [5, 11]: 4 h
AUC(0-t) [5, 11]: 41 ng·h/mL
Cmax [5, 12]: 6.98 ng/mL
Tmax [5, 12]: 2 h
AUC(0-t) [5, 12]: 182 ng·h/mL
Cmax [5, 13]: 4.4 ng/mL
AUC(0-t) [5, 13]: 99.5 ng·h/mL
Cmax [5, 14]: 8.07 ng/mL
Tmax [5, 14]: 2 h
AUC(0-t) [5, 14]: 248 ng·h/mL
Cmax [5, 15]: 7.56 ng/mL
Tmax [5, 15]: 2 h
AUC(0-t) [5, 15]: 135 ng·h/mL
